{"source": "patent US5817641A", "about": "“Treatment of enterotoxigenic diarrhea with 2-substituted adenosine derivatives” (priority 1997, dated 1998)", "key": {"[1]": {"target": "T1, guanylyl cyclase C (GC-C) (Rattus norvegicus, UniProt P23897)", "T1 construct": "The mucosal layer was scraped from the intestine and homogenized; from tissue; host or cells: small intestinal mucosa of Sprague-Dawley rats (100,000×g washed membrane pellet)", "T1 sequence (P23897 23-1072)": "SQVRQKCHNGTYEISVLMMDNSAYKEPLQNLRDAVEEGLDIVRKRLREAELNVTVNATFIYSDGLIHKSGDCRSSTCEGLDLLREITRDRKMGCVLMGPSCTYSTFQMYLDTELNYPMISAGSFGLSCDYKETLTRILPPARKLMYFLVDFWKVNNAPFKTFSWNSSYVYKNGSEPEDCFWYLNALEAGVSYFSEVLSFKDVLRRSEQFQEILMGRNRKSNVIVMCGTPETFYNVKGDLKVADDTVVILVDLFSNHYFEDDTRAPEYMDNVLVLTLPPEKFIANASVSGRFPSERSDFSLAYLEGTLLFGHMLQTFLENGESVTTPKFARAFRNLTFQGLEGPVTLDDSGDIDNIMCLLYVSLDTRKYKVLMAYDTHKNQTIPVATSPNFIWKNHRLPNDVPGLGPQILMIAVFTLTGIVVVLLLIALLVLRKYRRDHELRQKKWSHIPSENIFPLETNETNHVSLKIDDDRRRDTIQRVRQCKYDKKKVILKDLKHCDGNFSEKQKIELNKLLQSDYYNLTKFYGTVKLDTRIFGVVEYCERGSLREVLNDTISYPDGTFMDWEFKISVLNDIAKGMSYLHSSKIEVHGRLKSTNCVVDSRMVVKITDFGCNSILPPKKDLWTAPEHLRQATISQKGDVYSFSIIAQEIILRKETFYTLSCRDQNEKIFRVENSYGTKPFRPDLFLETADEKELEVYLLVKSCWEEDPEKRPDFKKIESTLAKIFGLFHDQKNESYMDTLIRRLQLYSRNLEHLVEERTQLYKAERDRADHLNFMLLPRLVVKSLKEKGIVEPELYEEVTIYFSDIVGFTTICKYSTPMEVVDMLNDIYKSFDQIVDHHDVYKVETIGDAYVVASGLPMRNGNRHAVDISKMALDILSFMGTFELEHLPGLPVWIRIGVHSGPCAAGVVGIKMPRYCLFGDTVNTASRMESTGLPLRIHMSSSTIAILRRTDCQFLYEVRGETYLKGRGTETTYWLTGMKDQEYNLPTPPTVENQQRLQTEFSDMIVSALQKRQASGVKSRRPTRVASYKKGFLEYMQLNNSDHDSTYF", "assay": "biochemical", "format": "biochemical", "conditions": "for maximum inhibition of guanylyl cyclase: with or without ST; for inhibition at 1000 µM: read-out: decrease of Vmax of guanylyl cyclase; for guanylyl cyclase activation by peptide: 10 μM peptide, presence or absence of 1 mM ATP", "experimental": "Membranes were prepared from rat intestinal mucosa cells as described previously (Gazzano et al., (1991) Infect. Immun., 59, 1552-1557, which is incorporated herein by reference). Briefly, Sprague-Dawley rats were sacrificed, small intestine removed and rinsed in ice-cold 0.9% NaCl. All procedures were conducted at 4° C. The mucosal layer was scraped from the intestine and homogenized in 50 mM Tris-HCl (pH 7.6) containing 1 mM dithiothreitol, 1 mM EDTA and 1 mM phenylmethylsulfonyl fluoride, (TED) supplemented with 0.25M sucrose (TEDS). Homogenates were centrifuged at 100,000×g for 60 minutes and the resulting pellet was sequentially washed in (i) TED supplemented with 0.5M KCl, (ii) TED:TEDS (1:1) and (iii) TED. The final pellet was homogenized in TED at a protein concentration of 5-10 mg/mL and aliquots were stored at -70° C.\nGuanylyl cyclase activity was assayed as described previously (Waldman et al., (1984) J. Infect. Dis., 149, 83-89, which is incorporated herein by reference). Membranes were incubated at 37° C. in a final volume of 100 μl in the presence of 50 mM Tris-HCl (pH 7.6) containing 10 mM theophylline, 7.5 mM creatine phosphate/[…] creatine phosphokinase (160 U/mg of protein), GTP, manganese or magnesium cofactor (2 mM in excess of nucleotide) and ST and/or adenine nucleotide where indicated. Reactions were initiated by addition of membrane, incubated 5 minutes and terminated by adding 400 μl of 50 mM sodium acetate (pH 4.0) and boiling for 5 minutes. Following acetylation, samples were diluted with 50 mM NaAc containing 20 mM CaCl2. Generated cGMP was quantified by radioimmunoassay as described previously (Waldman et al., (1984) J. Infect. Dis., 149, 83-89). Radioimmunoassays were performed in triplicate, enzyme reactions were performed in duplicate, and results are representative of at least 3 experiments. Enzyme activity was linear with respect to protein concentration and time for all experiments.\nProtein concentration was measured by the method of Bradford (Bio-Rad) using bovine serum albumin as standard (Bradford, M. M., (1976) Anal. Biochem., 72, 248-254). All assays were performed in duplicate and data are representative of at least 3 experiments. Values reported for the S0.5 and Vmax are equivalent to the concentration of substrate yielding half-maximum guanylyl cyclase activity and the maximum velocity of the enzyme activity, respectively. All nucleotides were obtained from Sigma, except 2-chloroadenosine 5'-triphosphate (2ClATP) which were from Research Biochemicals Incorporated (Natick, Mass.)."}, "[2]": {"tested_on": "GC-C in membranes from T84 and Caco 2 cells", "assay": "Guanylyl cyclase activity in membranes prepared from T84 and Caco 2 cells", "format": "biochemical", "source_text": "Guanylyl cyclase C undergoes post-translations processing yielding multiple ST-binding proteins detected in crosslinking studies utilizing ^125 I-ST or by Western blot analysis (Vaandrager et al., (1993) J. Biol. Chem., 268, 2174-2179; Vaandrager et al., (1993) J. Biol. Chem., 268, 19598-19603; Ivens et al., (1990) Infect. Immun., 58, 1817-1820; de Sauvage et al., (1993) J. Biol. Chem., 267, 6479-6482; Cohen et al., (1993) J. Cell. Physiol., 156, 138-144). Post-translational processing of GC-C appears to reflect heterogenicity of glycosylation and proteolysis. Processing has been observed in membranes examined from intestinal mucosal cells, intestinal cells grown in vitro, and mammalian cells expressing cloned rat or human GC-C. Thus, the shift in apparent cooperativity with associated changes in Hill coefficients induced by 2-substituted adenine nucleotides could reflect differences in their effects on different populations of GC-C in intestinal membranes. Guanylyl cyclase C is the predominant, […], member of the particulate guanylyl cyclase family expressed by T84 and Caco 2 cells in vitro (Vaandrager et al., (1992) Gastroenterology, 102, 1161-1169). […]"}, "[3]": {"tested_on": "ST receptor (GC-C)", "assay": "ST receptor binding assay ([125I]-ST) in rat intestinal membranes", "conditions": "1 mM nucleotide, presence or absence of GTP and magnesium", "experimental": "Membranes were prepared from rat intestinal mucosa cells as described previously (Gazzano et al., (1991) Infect. Immun., 59, 1552-1557, which is incorporated herein by reference). Briefly, Sprague-Dawley rats were sacrificed, small intestine removed and rinsed in ice-cold 0.9% NaCl. All procedures were conducted at 4° C. The mucosal layer was scraped from the intestine and homogenized in 50 mM Tris-HCl (pH 7.6) containing 1 mM dithiothreitol, 1 mM EDTA and 1 mM phenylmethylsulfonyl fluoride, (TED) supplemented with 0.25M sucrose (TEDS). […]\nST binding was quantified as described previously (Hugues et al., (1991) Biochemistry, 30, 10738-10745, which is incorporated herein by reference). […] Parallel incubations contained excess (10^-6 M) unlabeled ST to quantify non-specific binding. Reaction mixtures were incubated for 40 minutes at 37° C. and bound [^125 I]-ST was separated from free ligand by vacuum filtration through Whatman (GF/B glass fiber filters pretreated with 0.3% polyethyleneimine. Filters were washed with 10 ml of 20 mM phosphate-buffered saline (pH 7.2) containing 1 mM EDTA. Radioactivity which remained on the filter was quantified in a Packard γ-counter. Specific binding was determined by subtracting non-specific binding from the total [^125 I]-ST bound in the absence of unlabeled ligand. Non-specific binding was routinely less than 20% of total binding."}, "[4]": {"tested_on": "P2y purinergic receptors", "conditions": "cited from earlier work"}, "[5]": {"conditions": "magnesium cofactor, basal and ST (1 μM)-activated"}, "[6]": {"conditions": "manganese cofactor (1.6 without nucleotide)"}}, "data": [{"molecule": "CSc1nc(N)c2ncn([C@@H]3O[C@H](COP(=O)(O)OP(=O)(O)OP(=O)(O)O)[C@@H](O)[C@H]3O)c2n1", "note": "[2MeSATP]", "values": [{"measurement": "Ki", "setting": "[1]; Ki for inhibition of guanylyl cyclase, 20 μM GTP", "value": "390 ± 260", "unit": "µM"}, {"measurement": "Ki", "setting": "[1]; Ki for inhibition of guanylyl cyclase, 1000 μM GTP", "value": "280 ± 180", "unit": "µM"}, {"measurement": "Ki values in the presence or absence of ST", "setting": "[1]; magnesium cofactor", "value": "not significantly different"}, {"measurement": "Hill coefficient of guanylyl cyclase in the presence of nucleotide", "setting": "[1]; magnesium cofactor, 1 mM nucleotide, presence and absence of ST", "value": "about 1.0"}, {"measurement": "effect on guanylyl cyclase activity", "setting": "[1]; [5]", "value": "inhibited guanylyl cyclase activity"}, {"measurement": "maximum inhibition of guanylyl cyclase", "setting": "[1]; magnesium cofactor", "value": "> 95", "unit": "%"}, {"measurement": "effect on Vmax and S0.5", "setting": "[1]; magnesium cofactor, nucleotide 1 mM, presence or absence of ST", "value": "lowered the Vmax without significantly changing the S0.5"}, {"measurement": "effect on guanylyl cyclase activity", "setting": "[1]; manganese cofactor", "value": "inhibited guanylyl cyclase in a concentration-dependent fashion"}, {"measurement": "guanylyl cyclase activity inhibited", "setting": "[1]; manganese cofactor", "value": "> 95", "unit": "%"}, {"measurement": "Hill coefficient of guanylyl cyclase in the presence of nucleotide", "setting": "[1]; [6]", "value": 0.7}, {"measurement": "effect on S0.5", "setting": "[1]; manganese cofactor, 1 mM nucleotide", "value": "only a small effect on the S0.5"}, {"measurement": "inhibition at 1000 µM", "setting": "[1]", "value": "> 90", "unit": "%"}, {"measurement": "effect on cooperativity of GC-C", "setting": "[2]", "value": "shift from positive to negative cooperativity"}, {"measurement": "inhibition of GC-C", "setting": "[2]", "value": "potently inhibited GC-C"}]}, {"molecule": "Nc1ncnc2c1ncn2[C@@H]1O[C@H](CO[P@](=O)(O)O[P@](=O)(O)O[P@@](=O)(O)S)[C@@H](O)[C@H]1O", "note": "[ATPγS, adenosine 5'-O-(3-thiotriphosphate), reference compound]", "values": [{"measurement": "maximal activation of guanylyl cyclase", "setting": "[1]; magnesium cofactor, in the presence of ST (1 μM)", "value": "2- to 3 fold"}, {"measurement": "effect on guanylyl cyclase activity", "setting": "[1]; manganese cofactor", "value": "inhibited guanylyl cyclase in a concentration-dependent fashion"}]}, {"molecule": "CNP: C-type natriuretic peptide, ligand of GC-B [reference compound]", "values": [{"measurement": "guanylyl cyclase activation by peptide", "setting": "[1]", "value": "did not exhibit guanylyl cyclase activation"}]}, {"molecule": "Nc1ncnc2c1ncn2[C@@H]1O[C@H](COP(O)(O)=S)[C@@H](O)[C@H]1O", "note": "[AMPS, adenosine 5'-O-thiomonophosphate, reference compound]", "values": [{"measurement": "effect on guanylyl cyclase activity", "setting": "[1]; [5]", "value": "potentiated guanylyl cyclase activation by ST in a concentration-dependent fashion"}, {"measurement": "effect on guanylyl cyclase activity", "setting": "[1]; manganese cofactor", "value": "did not significantly inhibit guanylyl cyclase"}, {"measurement": "Ka to potentiate ST-activation of guanylyl cyclase when 2ClATP is incorporated", "setting": "[1]; with 2ClATP at 0.3 mM", "value": "unchanged"}]}, {"molecule": "Nc1nc(Cl)nc2c1ncn2[C@@H]1O[C@H](COP(=O)(O)OP(=O)(O)OP(=O)(O)O)[C@@H](O)[C@H]1O", "note": "[2ClATP, 2-chloroadenosine 5'-triphosphate]", "values": [{"measurement": "Ki", "setting": "[1]; Ki (concentration yielding half-maximum inhibition)", "value": 300, "unit": "µM"}, {"measurement": "guanylyl cyclase activity inhibited", "setting": "[1]; in the presence of maximally activating concentrations of AMPS", "value": "> 95", "unit": "%"}, {"measurement": "Ki values in the presence or absence of ST", "setting": "[1]; magnesium cofactor", "value": "not significantly different"}, {"measurement": "effect on guanylyl cyclase activity", "setting": "[1]; [5]", "value": "inhibited guanylyl cyclase activity"}, {"measurement": "maximum inhibition of guanylyl cyclase", "setting": "[1]; magnesium cofactor", "value": "> 95", "unit": "%"}, {"measurement": "effect on guanylyl cyclase activity", "setting": "[1]; manganese cofactor", "value": "inhibited guanylyl cyclase in a concentration-dependent fashion"}, {"measurement": "guanylyl cyclase activity inhibited", "setting": "[1]; manganese cofactor", "value": "> 95", "unit": "%"}, {"measurement": "Ki when AMPS is incorporated in enzyme incubations", "setting": "[1]; with maximally activating AMPS (3 mM)", "value": "unchanged"}, {"measurement": "specific binding of [125I]-ST to intestinal membranes", "setting": "[3]", "value": "unchanged"}]}, {"molecule": "ANP: atrial natriuretic peptides, ligand of GC-A [reference compound]", "values": [{"measurement": "guanylyl cyclase activation by peptide", "setting": "[1]", "value": "did not exhibit guanylyl cyclase activation"}]}, {"molecule": "Nc1ncnc2c1ncn2[C@@H]1O[C@H](COP(=O)(O)OP(O)(O)=S)[C@@H](O)[C@H]1O", "note": "[ADPβS, adenosine 5'-O-(2-thiodiphosphate), reference compound]", "values": [{"measurement": "ligand potency for P2y receptors", "setting": "[4]", "value": "potent ligand for P2y receptors"}]}, {"molecule": "Nc1nc(Cl)nc2c1ncn2[C@@H]1O[C@H](CO)[C@@H](O)[C@H]1O", "note": "[2ClAdo]", "values": [{"measurement": "effect on guanylyl cyclase activity", "setting": "[1]; manganese cofactor", "value": "did not significantly inhibit guanylyl cyclase"}]}, {"molecule": "Nc1ncnc2c1ncn2[C@@H]1O[C@H](COP(=O)(O)CP(=O)(O)OP(=O)(O)O)[C@@H](O)[C@H]1O", "note": "[AMPCPP, α,β-methylene adenosine 5'-triphosphate, reference compound]", "values": [{"measurement": "ligand potency for P2y receptors", "setting": "[4]", "value": "poor ligand for P2y receptors"}]}, {"molecule": "Nc1ncnc2c1ncn2[C@@H]1O[C@H](COP(=O)(O)OP(=O)(O)OP(=O)(O)O)[C@@H](O)[C@H]1O", "note": "[ATP, reference compound]", "values": [{"measurement": "effect on guanylyl cyclase activity", "setting": "[1]; [5]", "value": "activated guanylyl cyclase in a concentration-dependent manner but with a lower efficacy than ATPγS"}, {"measurement": "effect on guanylyl cyclase activity", "setting": "[1]; manganese cofactor", "value": "inhibited guanylyl cyclase in a concentration-dependent fashion"}, {"measurement": "Hill coefficient of guanylyl cyclase in the presence of nucleotide", "setting": "[1]; [6]", "value": "less than 1.0"}, {"measurement": "S0.5 of guanylyl cyclase in the presence of nucleotide", "setting": "[1]; manganese cofactor, 1 mM nucleotide (0.08 mM without)", "value": 0.25, "unit": "mM"}, {"measurement": "concentration at which the nucleotide inhibits guanylyl cyclase activity (biphasic dose-response)", "setting": "[1]; rat intestinal membranes", "value": "above 1 mM"}, {"measurement": "inhibition at 1000 µM", "setting": "[1]", "value": 80, "unit": "%"}]}]}
